How the values were obtained:
[1] = target: Calcium/calmodulin-dependent protein kinase type IV (Homo sapiens) (UniProt Q16566); experiment: Inhibition of recombinant full length human CaMK4 assessed as residual activity at 1 uM […] incubated for 40 mins in presence of [gamma-33ATP] by scintillation counting based radiometry assay relative to control
[2] = target: Bone morphogenetic protein receptor type-2 (Homo sapiens) (UniProt Q13873); experiment: Inhibition of recombinant human BMPR2 (172 to 734 residues) assessed as residual activity at 1 uM using myelin basic protein as substrate incubated for 120 mins in presence of [gamma-33ATP] by scintillation counting based radiometry assay relative to control
[3] = target: TRAF2 and NCK-interacting protein kinase (Homo sapiens) (UniProt Q9UKE5); experiment: Inhibition of human TNIK (1 to 367 residues) assessed as residual activity at 1 uM using RLGRDKYKTLRQIRQ as substrate measured after 40 mins in presence of [gamma33P]ATP by scintillation counting method relative to control
[4] = target: Inhibitor of nuclear factor kappa-B kinase subunit alpha (Homo sapiens) (UniProt O15111); experiment: Inhibition of full length human IKKalpha assessed as residual activity at 1 uM using peptide as substrate after 40 mins by [gamma-33ATP] radiometric assay relative to control
[5] = target: Tyrosine-protein kinase HCK (Homo sapiens) (UniProt P08631); experiment: Inhibition of human HCK (230 to 497 residues) assessed as residual activity at 1 uM using KVEKIGEGTYGVVYK as substrate after 40 mins by [gamma-33ATP] radiometric assay relative to control
[6] = tested on: PI3-kinase p110-alpha/p85-alpha (Homo sapiens), P27986+P42336 [H1047R]; experiment: Inhibition of recombinant full-length human PI3K p110alpha H1047R mutant/p85alpha assessed as residual activity at 1 uM assessed as residual activity at 1 uM using phosphatidylinositol-4, 5-bisphosphate as substrate incubated for 40 mins in presence of [gamma33P]ATP by scintillation counting based radiometry assay relative to control; assay type: protein-complex assay
[7] = tested on: Glycogen synthase kinase-3 alpha (Homo sapiens), P49840 [UNDEFINED MUTATION]; experiment: Inhibition of human GSK-3alpha S449A mutant (2 to end residues) at 10 uM using phospho GS2 peptide as substrate after 40 mins in presence of [gamma-33ATP] by scintillation counting method relative to control
[8] = target: Serine/threonine-protein kinase NIM1 (Homo sapiens) (UniProt Q8IY84); experiment: Inhibition of recombinant full length human NIM1 assessed as residual activity at 1 uM using KKKVSRSGLYRSPSMPENLNRPR as substrate measured after 40 mins in presence of [gamma33P]ATP by scintillation counting method relative to control
GSK-3beta (H350L mutant) = GSK-3beta (H350L mutant) (Homo sapiens, UniProt P49841, H350L); experiment: Inhibition of human GSK-3beta H350L mutant (2 to end residues) at 10 uM using phospho GS2 peptide as substrate after 40 mins by [gamma-33ATP] radiometric assay relative to control; conditions: human GSK-3beta H350L mutant enzyme (residues 2 to end), probe phospho GS2 peptide
[9] = tested on: Serine/threonine-protein kinase Chk2 (Homo sapiens), O96017 [R145W]; experiment: Inhibition of recombinant human CHK2 R145W mutant (5 to end residues) assessed as residual activity at 1 uM using KKKVSRSGLYRSPSMPENLNRPR as substrate incubated for 40 mins in presence of [gamma-33ATP] by scintillation counting based radiometry assay relative to control
[10] = target: Tyrosine-protein kinase ABL1 (Homo sapiens) (UniProt P00519); experiment: Inhibition of human ABL1 (27 to end residues) assessed as residual activity at 1 uM using EAIYAAPFAKKK as substrate incubated for 40 mins in presence of [gamma-33ATP] by scintillation counting based radiometry assay relative to control
[11] = target: Fibroblast growth factor receptor 1 (Homo sapiens) (UniProt P11362); experiment: Inhibition of recombinant human FGFR1 (456 to 765 residues) assessed as residual activity at 1 uM using KKKSPGEYVNIEF as substrate at 40 mins in presence of [gamma-33ATP] by scintillation counting based radiometry assay relative to control
[12] = target: Protein kinase C epsilon type (Homo sapiens) (UniProt Q02156); experiment: Inhibition of recombinant human PKCepsilon (2 to end residues) assessed as residual activity at 1 uM using ERMRPRKRQGSVRRRV as substrate measured after 40 mins in presence of [gamma33P]ATP by scintillation counting method relative to control
[13] = target: Ephrin type-A receptor 3 (Homo sapiens) (UniProt P29320); experiment: Inhibition of recombinant human EphA3 (578 to end residues) assessed as residual activity at 1 uM using poly(Glu, Tyr) 4:1 as substrate at 40 mins in presence of [gamma-33ATP] by scintillation counting based radiometry assay relative to control
Homo sapiens = species on record: Homo sapiens; experiment: Inhibition of recombinant human MER H628Q/R794A mutant (557 to 882 residues) assessed as residual activity at 1 uM using GGMEDIYFEFMGGKKK as substrate incubated for 40 mins in presence of [gamma-33ATP by scintillation counting based radiometry assay relative to control
[14] = target: Mitogen-activated protein kinase kinase kinase kinase 3 (Homo sapiens) (UniProt Q8IVH8); experiment: Inhibition of recombinant human MAP4K3 (1 to 291 residues) assessed as residual activity at 1 uM using RLGRDKYKTLRQIRQ as substrate incubated for 40 mins in presence of [gamma-33ATP by scintillation counting based radiometry assay relative to control
[15] = tested on: Casein kinase II subunit alpha' (CSNK2A2); experiment: Inhibition of recombinant full length human CK2alpha2 assessed as residual activity at 1 uM using RRRDDDSDDD as substrate incubated 40 mins in presence of [gamma-33ATP] by scintillation counting based radiometry assay relative to control
[16] = target: Mitogen-activated protein kinase kinase kinase kinase 2 (Homo sapiens) (UniProt Q12851); experiment: Inhibition of recombinant human GCK (1 to 473 residues) assessed as residual activity at 1 uM using myelin basic protein as substrate at 40 mins in presence of [gamma-33ATP] by scintillation counting based radiometry assay relative to control
[17] = tested on: Receptor-type tyrosine-protein kinase FLT3 (Homo sapiens), P36888 [D835Y]; experiment: Inhibition of recombinant human FLT3 D835Y mutant (564 to end residues) assessed as residual activity at 1 uM using EAIYAAPFAKKK as substrate at 40 mins in presence of [gamma-33ATP] by scintillation counting based radiometry assay relative to control
[18] = target: Casein kinase I isoform gamma-2 (Homo sapiens) (UniProt P78368); experiment: Inhibition of recombinant human CK1gamma2 (18 to end residues) assessed as residual activity at 1 uM using KRRRALS(p)VASLPGL as substrate incubated for 40 mins in presence of [gamma-33ATP] by scintillation counting based radiometry assay relative to control

Sequence of Inhibitor of nuclear factor kappa-B kinase subunit alpha (Homo sapiens) (O15111 whole entry, the tested form may be a part): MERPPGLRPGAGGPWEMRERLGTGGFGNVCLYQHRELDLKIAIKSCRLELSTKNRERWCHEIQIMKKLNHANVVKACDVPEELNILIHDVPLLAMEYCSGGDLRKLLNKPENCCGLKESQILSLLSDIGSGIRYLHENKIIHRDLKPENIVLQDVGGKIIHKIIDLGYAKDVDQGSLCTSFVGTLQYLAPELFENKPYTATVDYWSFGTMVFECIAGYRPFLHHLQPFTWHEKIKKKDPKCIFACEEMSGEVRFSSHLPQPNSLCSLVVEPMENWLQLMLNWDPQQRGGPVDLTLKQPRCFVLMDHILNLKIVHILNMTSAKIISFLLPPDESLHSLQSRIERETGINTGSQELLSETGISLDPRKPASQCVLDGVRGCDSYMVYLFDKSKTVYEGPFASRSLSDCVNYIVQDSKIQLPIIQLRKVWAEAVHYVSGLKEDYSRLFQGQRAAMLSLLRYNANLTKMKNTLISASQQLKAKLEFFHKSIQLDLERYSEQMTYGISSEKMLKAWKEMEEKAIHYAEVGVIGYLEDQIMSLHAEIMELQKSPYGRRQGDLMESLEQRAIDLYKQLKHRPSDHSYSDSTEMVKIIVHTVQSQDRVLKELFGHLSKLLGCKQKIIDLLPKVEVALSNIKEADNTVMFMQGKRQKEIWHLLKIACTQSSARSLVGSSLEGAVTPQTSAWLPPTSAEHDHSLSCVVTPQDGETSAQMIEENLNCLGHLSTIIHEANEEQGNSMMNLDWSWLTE
Sequence of TRAF2 and NCK-interacting protein kinase (Homo sapiens) (Q9UKE5 whole entry, looked up, the tested form may be a part): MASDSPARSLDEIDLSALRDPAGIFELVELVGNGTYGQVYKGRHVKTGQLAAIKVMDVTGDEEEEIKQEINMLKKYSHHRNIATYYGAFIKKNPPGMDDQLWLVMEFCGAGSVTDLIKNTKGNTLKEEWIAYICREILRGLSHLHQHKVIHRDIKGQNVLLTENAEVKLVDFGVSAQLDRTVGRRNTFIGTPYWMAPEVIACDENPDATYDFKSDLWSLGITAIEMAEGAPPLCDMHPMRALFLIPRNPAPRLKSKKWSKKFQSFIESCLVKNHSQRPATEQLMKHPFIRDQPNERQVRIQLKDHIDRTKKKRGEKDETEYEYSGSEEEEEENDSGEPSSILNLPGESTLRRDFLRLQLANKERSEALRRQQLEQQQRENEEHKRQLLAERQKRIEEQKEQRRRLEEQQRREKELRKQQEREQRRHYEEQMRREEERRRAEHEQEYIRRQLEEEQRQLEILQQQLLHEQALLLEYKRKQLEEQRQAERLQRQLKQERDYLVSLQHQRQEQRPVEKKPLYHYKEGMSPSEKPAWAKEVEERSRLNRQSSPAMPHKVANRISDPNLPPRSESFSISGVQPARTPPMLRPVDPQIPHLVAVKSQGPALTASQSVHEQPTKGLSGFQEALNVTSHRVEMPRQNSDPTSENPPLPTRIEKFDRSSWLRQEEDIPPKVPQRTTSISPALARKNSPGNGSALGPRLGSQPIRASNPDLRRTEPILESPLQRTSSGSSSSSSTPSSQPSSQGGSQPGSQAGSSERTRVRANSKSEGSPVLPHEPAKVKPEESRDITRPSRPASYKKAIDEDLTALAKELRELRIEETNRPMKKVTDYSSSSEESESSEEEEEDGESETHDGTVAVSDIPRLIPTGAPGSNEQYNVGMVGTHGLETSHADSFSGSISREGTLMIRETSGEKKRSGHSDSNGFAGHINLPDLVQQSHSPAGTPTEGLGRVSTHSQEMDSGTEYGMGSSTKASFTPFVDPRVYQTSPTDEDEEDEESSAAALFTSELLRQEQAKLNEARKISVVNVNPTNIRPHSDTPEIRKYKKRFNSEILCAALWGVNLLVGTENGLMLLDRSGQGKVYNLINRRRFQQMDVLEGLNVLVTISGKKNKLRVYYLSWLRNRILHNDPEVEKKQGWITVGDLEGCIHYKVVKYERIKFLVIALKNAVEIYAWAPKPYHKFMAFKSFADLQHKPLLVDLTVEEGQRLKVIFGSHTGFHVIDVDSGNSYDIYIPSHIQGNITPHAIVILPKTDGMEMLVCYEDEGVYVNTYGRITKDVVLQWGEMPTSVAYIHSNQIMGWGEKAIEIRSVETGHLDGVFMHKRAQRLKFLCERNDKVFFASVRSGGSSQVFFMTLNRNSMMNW
Sequence of Protein kinase C epsilon type (Homo sapiens) (Q02156 whole entry): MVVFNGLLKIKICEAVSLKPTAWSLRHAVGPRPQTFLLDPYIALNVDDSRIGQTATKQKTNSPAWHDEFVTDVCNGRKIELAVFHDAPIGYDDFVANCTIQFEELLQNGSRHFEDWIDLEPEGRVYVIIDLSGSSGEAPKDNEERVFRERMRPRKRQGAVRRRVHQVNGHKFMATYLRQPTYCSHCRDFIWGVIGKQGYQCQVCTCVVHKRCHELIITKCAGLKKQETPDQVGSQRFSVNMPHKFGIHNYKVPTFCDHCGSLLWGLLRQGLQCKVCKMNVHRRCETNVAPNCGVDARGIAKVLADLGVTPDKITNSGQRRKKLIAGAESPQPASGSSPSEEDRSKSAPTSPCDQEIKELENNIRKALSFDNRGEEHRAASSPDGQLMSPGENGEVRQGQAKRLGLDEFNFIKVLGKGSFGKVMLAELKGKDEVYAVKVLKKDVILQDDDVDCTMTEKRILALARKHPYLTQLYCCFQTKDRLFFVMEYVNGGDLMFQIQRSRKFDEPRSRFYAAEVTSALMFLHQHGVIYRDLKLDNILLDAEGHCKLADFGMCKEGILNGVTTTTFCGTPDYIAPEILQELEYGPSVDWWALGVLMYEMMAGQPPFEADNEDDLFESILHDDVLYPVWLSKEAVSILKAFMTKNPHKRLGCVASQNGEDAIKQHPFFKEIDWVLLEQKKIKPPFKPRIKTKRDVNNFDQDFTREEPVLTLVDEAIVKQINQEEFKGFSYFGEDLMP
Sequence of Serine/threonine-protein kinase Chk2 (Homo sapiens), O96017 [R145W] (O96017 whole entry R145W): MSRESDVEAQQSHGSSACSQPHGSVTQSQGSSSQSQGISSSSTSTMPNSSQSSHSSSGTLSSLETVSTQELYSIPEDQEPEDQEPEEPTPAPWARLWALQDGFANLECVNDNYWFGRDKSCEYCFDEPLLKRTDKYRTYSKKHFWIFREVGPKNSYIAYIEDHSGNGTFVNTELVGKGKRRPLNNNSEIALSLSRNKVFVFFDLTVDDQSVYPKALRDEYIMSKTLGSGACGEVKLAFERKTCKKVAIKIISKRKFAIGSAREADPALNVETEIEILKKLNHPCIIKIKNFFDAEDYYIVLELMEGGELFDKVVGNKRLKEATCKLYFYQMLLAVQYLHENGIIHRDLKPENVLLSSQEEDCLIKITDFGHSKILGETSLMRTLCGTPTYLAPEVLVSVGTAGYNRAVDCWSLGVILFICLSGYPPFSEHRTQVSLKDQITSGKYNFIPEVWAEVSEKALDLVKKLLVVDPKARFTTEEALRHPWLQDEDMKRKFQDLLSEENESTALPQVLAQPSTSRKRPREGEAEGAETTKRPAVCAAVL
Sequence of Calcium/calmodulin-dependent protein kinase type IV (Homo sapiens) (Q16566 whole entry, the tested form may be a part): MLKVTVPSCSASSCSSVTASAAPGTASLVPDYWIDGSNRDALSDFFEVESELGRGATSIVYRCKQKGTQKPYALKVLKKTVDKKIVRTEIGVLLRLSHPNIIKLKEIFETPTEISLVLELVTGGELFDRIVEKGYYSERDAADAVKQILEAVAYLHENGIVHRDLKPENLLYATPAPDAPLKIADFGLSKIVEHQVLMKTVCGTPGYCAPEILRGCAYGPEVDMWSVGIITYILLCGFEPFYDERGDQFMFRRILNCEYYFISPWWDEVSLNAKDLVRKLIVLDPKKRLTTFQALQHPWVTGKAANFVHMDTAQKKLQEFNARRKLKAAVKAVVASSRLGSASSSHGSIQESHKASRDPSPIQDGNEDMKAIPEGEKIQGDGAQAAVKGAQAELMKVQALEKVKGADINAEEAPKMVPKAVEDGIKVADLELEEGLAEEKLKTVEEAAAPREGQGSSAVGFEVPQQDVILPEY
Sequence of Tyrosine-protein kinase HCK (Homo sapiens) (P08631 2-526 limits assumed): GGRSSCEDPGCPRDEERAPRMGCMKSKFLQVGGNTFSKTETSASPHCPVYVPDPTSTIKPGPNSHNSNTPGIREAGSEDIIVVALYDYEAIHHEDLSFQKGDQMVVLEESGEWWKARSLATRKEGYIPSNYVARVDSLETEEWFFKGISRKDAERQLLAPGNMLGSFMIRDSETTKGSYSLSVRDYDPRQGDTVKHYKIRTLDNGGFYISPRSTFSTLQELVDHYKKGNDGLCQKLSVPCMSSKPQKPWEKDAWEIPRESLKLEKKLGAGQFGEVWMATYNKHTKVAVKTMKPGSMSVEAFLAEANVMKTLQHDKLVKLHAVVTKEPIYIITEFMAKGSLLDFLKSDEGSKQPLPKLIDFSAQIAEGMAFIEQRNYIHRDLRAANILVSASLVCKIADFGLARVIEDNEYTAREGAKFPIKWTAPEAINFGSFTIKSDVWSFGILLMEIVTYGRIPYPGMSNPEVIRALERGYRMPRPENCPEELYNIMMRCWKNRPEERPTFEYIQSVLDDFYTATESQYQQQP
Sequence of Serine/threonine-protein kinase NIM1 (Homo sapiens) (Q8IY84 whole entry, the tested form may be a part): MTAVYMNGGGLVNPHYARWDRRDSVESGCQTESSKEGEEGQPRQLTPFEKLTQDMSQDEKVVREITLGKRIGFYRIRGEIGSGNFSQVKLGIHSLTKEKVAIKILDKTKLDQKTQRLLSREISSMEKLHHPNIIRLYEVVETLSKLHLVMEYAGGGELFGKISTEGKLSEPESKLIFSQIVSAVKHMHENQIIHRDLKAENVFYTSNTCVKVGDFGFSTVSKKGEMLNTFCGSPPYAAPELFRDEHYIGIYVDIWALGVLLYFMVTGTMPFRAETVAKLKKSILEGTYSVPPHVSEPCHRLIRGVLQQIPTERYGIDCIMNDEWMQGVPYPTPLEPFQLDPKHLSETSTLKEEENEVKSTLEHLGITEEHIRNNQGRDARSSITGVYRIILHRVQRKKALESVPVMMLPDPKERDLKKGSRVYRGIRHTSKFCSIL

SMILES	Activity [1]	Activity [2]	Activity [3]	Activity [4]	Activity [5]	Activity [6]	inhibition [7]	Activity [8]	inhibition at 40 min, 10 µM (GSK-3beta (H350L mutant))	Activity [9]	Activity [10]	Activity [11]	Activity [12]	Activity [13]	Activity (Homo sapiens)	Activity [14]	Activity [15]	Activity [16]	Activity [17]	Activity [18]
C=CCOC(=O)c1cc(-c2ccc(/C=C3/NC(=S)NC3=O)o2)ccc1Cl	95%	99%	52%	104%	73%	94%	93%	95%	92%	91%	122%	113%	99%	97%	101%	99%	73%	89%	101%	94%
N=C1NC(=O)/C(=C\c2ccc(-c3cccc([N+](=O)[O-])c3)o2)S1	87%	91%	74%	102%	72%	100%	96%	101%	95%	99%	85%	99%	106%	111%	97%	102%	52%	81%	84%	98%

From ChEMBL document CHEMBL4334438, “Discovery of novel glycogen synthase kinase-3α inhibitors: Structure-based virtual screening, preliminary SAR and biological evaluation for treatment of acute myeloid leukemia” (Eur J Med Chem, 2019)
